Laboratory results reported in patent publication US20190100761A1, “COMPOSITIONS AND METHODS FOR ENHANCED GENE EXPRESSION AND VIRAL REPLICATION” (priority 2016, published 2019).

Tests used:
[1] = test system: HIV-1; conditions: literature report; cited from earlier work
[2] = test system: HIV-1 NL4-3; format: cell-based; conditions: 50 μM DAA, CEM-SS cells, Western at 72 hpi
[3] = test system: m^6A levels in total poly(A)+ RNA; format: cell-based, human; conditions: 50 μM DAA, CEM-SS cells, dot blot
[4] = test system: m^6A addition to mRNA substrates; conditions: by blocking the hydrolysis of S-adenosylhomocysteine; literature; cited from earlier work
[5] = test system: RSV; conditions: literature report; cited from earlier work
[6] = test system: CEM-SS cells
[7] = test system: IAV; conditions: literature report; cited from earlier work

SMILES: Nc1nccc2c1ncn2[C@@H]1O[C@H](CO)[C@@H](O)[C@H]1O [DAA, 3-deazaadenosine]
- replication of HIV-1 [1]: inhibit the replication
- replication of HIV-1 [2]: effectively inhibited
- m^6A levels in total poly(A)+ RNA [3]: significant decline
- m^6A addition to mRNA substrates [4]: block m^6A addition
- replication of RSV [5]: inhibit the replication
- cell growth or viability ([6]; 50 μM DAA, four day treatment period, CEM-SS cells): did not reduce cell growth or viability
- total level of cellular protein (BCA assay) in HIV-1 infected cultures ([6]; presence or absence of DAA, CEM-SS cell pellets): similar
- replication of IAV [7]: inhibit the replication
